Measurements from US20200270294A1, “IMMUNOSTIMULATORY ADJUVANTS AND USES THEREOF” (TURUN YLIOPISTO, priority 2015, published 2020).

Tests used:
[1] = system: birch-induced production of IL-4 in PBMC; experiment: Birch allergen (Bet v) induced IL-4 production in PBMC cultures of birch allergic subjects; format: cell-based, human; settings: for suppression of birch-induced production of IL-4: Bet v 50 μg/ml, 72 h; for in vitro activity (PBMC model): screen of oligovalent β-(1→2) mannosides
From the text: (§1) During pollen season, 14 adult birch allergic subjects with allergic rhinoconjunctivitis (12 females and two males) were enrolled in the study (mean age 42.5 years, SD 12.4 years; mean birch-specific IgE (Immunocap, Thermo Fisher Scientific Phadia, Uppsala, Sweden) 36.1 kU/1, SD 31.5 kU/1). They were selected for the study from an earlier cohort based on good birch induced IL-4 responses during pollen season. All samples were taken after informed consent. The study was approved by the local ethics committee.
Peripheral blood mononuclear cells (PBMC) were isolated by Ficoll-Paque density gradient centrifugation (Ficoll-Paque PLUS, GE Healthcare BioSciences AB, Uppsala, Sweden) from heparinized blood samples from study subjects during pollen season. The PBMC were washed twice with Hanks' balanced salt solution (HBSS) buffered with NaHCO3 (pH 7.4) and resuspended in RPMI-1640 culture medium (Invitrogen Co., Carlsbad, Calif., USA) supplemented with 5% autologous serum, 2.5 mM L-glutamine (Sigma-Aldrich Co., St. Louis, Mo.) and 100 μg/ml gentamycin sulfate (Biological Industries Ltd., Kibbutz Beit Haemek, Israel) and applied on 48-well flat-bottomed cell culture plates (Costar, Corning Inc., New York, United States) at a density of […]. Cells were co-cultured in the presence of birch allergen (50 μg/ml, Betula verrucosa, Bet v, Aquagen, ALK-Abellò A/S, Horsholm, Denmark) and compounds 1, 2, 3 and MPL with concentrations 1, 10 and 100 μg/ml and adjuvant CpG-ODN with concentrations 2, 20 and 200 μg/ml to achieve equal molarities. Medium alone served as an unstimulated control. All incubations were performed at +37° C. in humidified atmosphere with 5% CO2. Supernatants from cultures performed in duplicate were collected 72 h after beginning of the stimulation and stored at −70° C.
The cytokines IL-4 and TNF in supernatants were measured with highsensitivity human cytokine Lincoplex kits (LINCO Research, St. Charles, Mo., USA). The assays were performed in accordance with the manufacturer's protocol by employing Luminex technology.
(§2) Wilcoxon's Signed Rank test was used to test statistical significance in PBMC experiments. Single mice groups were compared by the nonparametric Mann-Whitney U-test using GraphPad Prism software (v.5, GraphPad Software Inc., La Jolla, Calif., USA). Data are expressed as mean±SEM and P-values of <0.05 are considered statistically significant.

B16 melanoma cells = experiment: In vivo model of cancer immunotherapy: B16 melanoma tumor growth in mice; parameters: species or system C57BL/6 mice
Protocol: as §2
3*10^6 B16 melanoma cells in 100 μl PBS were injected s.c. into the right flank of seven-week-old female C57BL/6 mice. Compound 3 was given i.p. 50 μg/injection in 200 μl PBS five times at 3-day intervals, starting on day 0. Each treatment group contained 10 mice. Tumor volumes were calculated using the formula 0.5*length*width^2. Animals were sacrificed when tumor volumes reached 800 mm^3. Animal experimentations were made following the procedures accepted by Eteli-Suomen Aluehallintavirasto (permission ESAVI/480/Apr. 10.2007/2016).

[2] = system: production of pro-inflammatory cytokine TNF in PBMC; experiment: TNF production in PBMC cultures stimulated with Bet v; format: cell-based, human; settings: 100 μg/ml (also printed 100 l/ml), Bet v 50 μg/ml, 72 h
From the text: as §1
Peripheral blood mononuclear cells (PBMC) were isolated by Ficoll-Paque density gradient centrifugation (Ficoll-Paque PLUS, GE Healthcare BioSciences AB, Uppsala, Sweden) from heparinized blood samples from study subjects during pollen season. […]
The cytokines IL-4 and TNF in supernatants were measured with highsensitivity human cytokine Lincoplex kits (LINCO Research, St. Charles, Mo., USA). […]
Wilcoxon's Signed Rank test was used to test statistical significance in PBMC experiments. […] Data are expressed as mean±SEM and P-values of <0.05 are considered statistically significant.

[3] = 10 μg/ml adjuvant, PBMC of 14 birch allergic patients
[4] = 100 g/ml or 100 l/ml as printed (highest concentration, b131: 100 μg/ml), PBMC

Row | Structure (SMILES) | suppression of birch-induced production of IL-4 [1, 3] | suppression of birch-induced production of IL-4 [1, 4] | in vitro activity (PBMC model) [1] | tumor volume as compared to control mice (B16 melanoma cells; Day 9, i.p. 50 μg/injection five times at 3-day intervals) | start of tumor growth as compared to control (B16 melanoma cells; i.p. 50 μg/injection five times at 3-day intervals, starting on day 0) | tumor growth until Day 9 as compared to control (B16 melanoma cells; i.p. 50 μg/injection five times at 3-day intervals, until Day 9) | production of pro-inflammatory cytokine TNF [2]
1 | CC(=O)OCC1O[C@@H](OC2C(OC(C)=O)[C@H](OC(C)=O)C(COC(C)=O)O[C@@H]2OCCOCCOCCn2cc(COCC(COCc3cn(CCOCCOCCO[C@H]4OC(COC(C)=O)[C@@H](OC(C)=O)C(OC(C)=O)C4O[C@@H]4OC(COC(C)=O)[C@@H](OC(C)=O)C(OC(C)=O)C4OC(C)=O)nn3)OCc3cn(CCOCCOCCO[C@H]4OC(COC(C)=O)[C@@H](OC(C)=O)C(OC(C)=O)C4O[C@@H]4OC(COC(C)=O)[C@@H](OC(C)=O)C(OC(C)=O)C4OC(C)=O)nn3)nn2)C(OC(C)=O)C(OC(C)=O)[C@@H]1OC(C)=O (stereo partly drawn) [compound 3, 1,2,3-tris(1-{2-[2-(2-[O-(2,3,4,6-tetra-O-acetyl-β-D-mannopyranosyl)-(1→2)-3,4,6-tri-O-acetyl-α-D-mannopyranosyloxy]ethoxy)-ethoxy]ethyl}-4-methyloxy-1,2,3-triazolyl)propane] | significant suppression | significant suppression | promising in vitro activities | statistically significantly smaller | started later | slower | Significantly increased production
2 | CC(=O)OCC1O[C@H](OCCn2cc(COCC(COCc3cn(CCO[C@H]4OC(COC(C)=O)[C@@H](OC(C)=O)[C@H](OC(C)=O)C4O[C@@H]4OC(COC(C)=O)[C@@H](OC(C)=O)[C@H](OC(C)=O)C4OC(C)=O)nn3)OCc3cn(CCO[C@H]4OC(COC(C)=O)[C@@H](OC(C)=O)[C@H](OC(C)=O)C4O[C@@H]4OC(COC(C)=O)[C@@H](OC(C)=O)[C@H](OC(C)=O)C4OC(C)=O)nn3)nn2)C(O[C@@H]2OC(COC(C)=O)[C@@H](OC(C)=O)[C@H](OC(C)=O)C2OC(C)=O)[C@@H](OC(C)=O)[C@@H]1OC(C)=O (stereo partly drawn) [compound 1, 1,2,3-tris[1-(3-{0-(2,3,4,6-tetra-O-acetyl-β-D-mannopyranosyl)-(1→2)-3,4,6-tri-O-acetyl-α-D-mannopyranosyloxy}ethyl)-4-methyloxy-1,2,3-triazolyl]propane] | – | – | promising in vitro activities | – | – | – | –
3 | CC(=O)OC[C@H]1O[C@@H](O[C@@H]2[C@@H](OCCCn3cc(COCC(COCc4cn(CCCO[C@H]5O[C@H](COC(C)=O)[C@@H](OC(C)=O)[C@H](OC(C)=O)[C@@H]5O[C@@H]5O[C@H](COC(C)=O)[C@@H](OC(C)=O)[C@H](OC(C)=O)[C@@H]5OC(C)=O)nn4)OCc4cn(CCCO[C@H]5O[C@H](COC(C)=O)[C@@H](OC(C)=O)[C@H](OC(C)=O)[C@@H]5O[C@@H]5O[C@H](COC(C)=O)[C@@H](OC(C)=O)[C@H](OC(C)=O)[C@@H]5OC(C)=O)nn4)nn3)O[C@H](COC(C)=O)[C@@H](OC(C)=O)[C@@H]2OC(C)=O)[C@@H](OC(C)=O)[C@@H](OC(C)=O)[C@@H]1OC(C)=O (stereo partly drawn) [compound 2, 1,2,3-tris[1-(3-{O-(2,3,4,6-tetra-O-acetyl-β-D-mannopyranosyl)-(1-+2)-3,4,6-tri-O-acetyl-α-D-mannopyranosyloxy}propyl)-4-methyloxy-1,2,3-triazolyl]propane] | significant suppression | significant suppression | promising in vitro activities | – | – | – | Significantly increased production
